Experiments:
Staphylococcus aureus = assay: One-minute kill in bacterial culture (colony counts); type: cell-based; conditions: for CFU/ml (1 minute kill): TSB + 20% BCS, 10^7 CFU inoculum; for decrease in CFU: 500 micrograms per milliliter, 1 minute
Procedure: Various concentrations of chlorhexidine diacetate (“CHA”) and/or triclosan (“TC”) were dispensed in 1.0 ml trypticase soy broth (“TSB”) containing 20 percent bovine calf serum (“BCS”) and inoculated with 10^7 colony-forming units (“CFU”) of Staphylococcus aureus. After one minute, the cultures were diluted with drug-inactivating medium (1:100 dilution in LTSB drug inactivating medium, which is 5% Tween 80, 2% lecithin, 0.6% sodium oleate, 0.5% sodium thiosulfate, 0.1% protease peptone and 0.1% tryptone) and 0.2 ml of the diluted culture was subcultured on a trypticase soy agar plate for the determination of colony counts.

Solubility observation = type: physicochemical; conditions: water or alcohol
Text: When relatively soluble chlorhexidine salts such as chlorhexidine acetate (CHA) were used to impregnate catheters, the release was undesirably rapid. We investigated the use of CHX as a substitute for CHA.

Structure (SMILES) | CFU/ml (1 minute kill) (Staphylococcus aureus; 250 μg/ml) | CFU/ml (1 minute kill) (Staphylococcus aureus; 500 μg/ml) | decrease in CFU (Staphylococcus aureus) | CFU/ml (1 minute kill) (Staphylococcus aureus; 1000 μg/ml) | CFU/ml (1 minute kill) (Staphylococcus aureus; 2000 μg/ml) | solubility (Solubility observation)
Oc1cc(Cl)ccc1Oc1ccc(Cl)cc1Cl [TC, 2,4,4′-trichloro-2′-hydroxydiphenyl ether] | 2.0 × 10^5 CFU/ml | 4.2 × 10^3 CFU/ml | approximately 2400 fold | – | – | –
CC(=O)O.CC(=O)O.NC(=N\CCCCCC/N=C(N)/N=C(\N)Nc1ccc(Cl)cc1)/N=C(\N)Nc1ccc(Cl)cc1 [CHA, chlorhexidine diacetate] | – | 6.0 × 10^5 CFU/ml | approximately 17 fold | 5.0 × 10^4 CFU/ml | 2.1 × 10^3 CFU/ml | –
N=C(NCCCCCCNC(=N)NC(=N)Nc1ccc(Cl)cc1)NC(=N)Nc1ccc(Cl)cc1 [CHX, chlorhexidine free base] | – | – | – | – | – | not soluble
